Where two headings read alike, the source gives them in different places.
Columns and labels:
[1] = molecular target: T1, Plasmodium falciparum PKG (PfPKG) (Plasmodium falciparum, UniProt Q8I719); assay: PfPKG IMAP fluorescence polarization kinase assay; format: biochemical
T1 construct: Full length PfPKG was cloned into the pTrcHisC vector for expression in BL21 (DE3) Star cells; His tag (pTrcHisC vector) (N); made in house; host or cells: E. coli BL21 (DE3) Star
Protocol: Full length PfPKG was cloned into the pTrcHisC vector for expression in BL21 (DE3) Star cells. An LB culture containing 50 ug/ml carbenicillin (250 mL) was grown overnight at 37° C. The following day the culture was cooled on ice for about 10-15 minutes and divided equally into two new 125 mL cultures. 125 ml of fresh LB broth containing carbenicillin was added to each flask bringing the volume of each flask to 250 ml. Cultures were shaken at 18° C. before induction with IPTG (1.0 mM) for 18-24 h. The bacterial pellet was frozen at −80° C. until protein purification. Cells were lysed with Bacterial Protein Extraction Reagent (Thermo Scientific) on ice for 10-15 min. Supernatant was obtained after centrifugation of lysate at 21,000×g for 15 min at 4° C. Supernatant was incubated for 30 minutes at 4° C. with rotation with HisPur Cobalt Resin (Thermo Scientific), pre-washed with Wash Buffer (50 mM Hepes pH 7.8, 120 mM KCl, 20 mM NaCl, 10 mM Imidazole). Resin was added to a gravity column that was allowed to empty through gravity flow. The resin was washed with Wash buffer until no more protein is eluted off the column as determined by Bradford assay. A second wash was performed with Wash buffer containing 300 mM NaCl as in the previous wash step. Bound protein was eluted in 50 mM Hepes pH 7.8, 120 mM KCl, 20 mM NaCl, 250 mM Imidazole. Protein was dialyzed overnight in 50 mM Hepes pH 7.8, 120 mM KCl, 20 mM NaCl and 10% glycerol, with two buffer exchanges. Dialyzed protein was concentrated in a Corning Spin-X concentrator and assayed for activity using the IMAP FP Progressive Screening Expression kit (Molecular Devices, catalog #R8127) following the manufacturer's protocol.
(§1) Plasmodium falciparum PKG (PfPKG) and human PKG (hPKG) kinase activity was assayed using a commercial immobilized metal ion affinity-based fluorescence polarization (IMAP) assay according to the manufactures protocol (Molecular Devices). Briefly, kinase assays (20 μl in black half volume 96 well microtiter plates) contained; 10 mM Tris-HCl, pH 7.2, 10 mM MgCl2, 0.05% NaN3, 0.01% Tween® 20, 10 uM ATP, 1 uM cGMP and 21 ng of recombinant enzyme per well. Compounds were preincubated with enzyme at 25° C. for 15 minutes and reactions were initiated with addition of 120 nM fluorescent peptide substrates, FAM-PKAtide for PfPKG and FAM-IP3R for hPKG (Molecular Devices). Fluorescent polarization was measured using a Synergy 2 Microplate reader (BioTek, Winooski, Vt.). Fluorescent polarization was read in parallel and perpendicular with an excitation wavelength of 485 nm and an emission wavelength of 528 nm. IC50 data were analyzed using a four parameter logistic curve fit using Microsoft Excel Solver.

human PKG (hPKG) = assay: Human PKG IMAP fluorescence polarization kinase assay; format: biochemical; conditions: compound at 10 μm; recombinant hPKG, 10 uM ATP, 1 uM cGMP, FAM-IP3R substrate
Description: Human PKG, cloned into a pENTR221 vector, was obtained from DNASU.org. (HsCD00351766). It was cloned into a mammalian expression plasmid, Gateway pDEST27 (Invitrogen) for expression as a GST fusion protein, using LR Clonase II Plus enzyme (Invitrogen). The hPKG-pDEST27 plasmid was amplified in DH5a Max Efficiency Competent Cells and purified with a PureYield Plasmid Midiprep System (Promega) following the manufactures protocol. Expi293 cells were transfected with hPKG-pDEST27 using the Expifectamine 293 Transfection Kit (Gibco). After 18 hours, enhancing reagent (Gibco) was added. Cells were then collected 48 hours post-enhancing, centrifuged at 2000×g for 10 min, washed in ice cold PBS and frozen as a pellet at −80° C. until protein purification. The cell pellet was lysed with Mammalian Protein Extraction Reagent (Thermo Fisher) for 10-15 minutes. The lysate was centrifuged at 21,000×g for 15 minutes at 4° C. The supernatant was incubated for 1 h at 4° C. with glutathione resin that was pre-washed 10 times with ice cold Wash Buffer (50 mM Hepes pH 7.8, 120 mM KCl, 20 mM NaCl, 10% glycerol). The resin was loaded onto a column and washed with resin wash buffer by gravity flow until no more protein was detectable in the washes by Bradford assay. Protein was eluted with 10 mg/ml glutathione in Wash buffer. The protein was concentrated using a 30K MWCO Corning Spin X concentrator and assayed for activity as described above.
as §1

[2] = recombinant PfPKG, 10 uM ATP, 1 uM cGMP, FAM-PKAtide substrate, read-out: PfPKG (μm)

T1 sequence (Q8I719 whole entry): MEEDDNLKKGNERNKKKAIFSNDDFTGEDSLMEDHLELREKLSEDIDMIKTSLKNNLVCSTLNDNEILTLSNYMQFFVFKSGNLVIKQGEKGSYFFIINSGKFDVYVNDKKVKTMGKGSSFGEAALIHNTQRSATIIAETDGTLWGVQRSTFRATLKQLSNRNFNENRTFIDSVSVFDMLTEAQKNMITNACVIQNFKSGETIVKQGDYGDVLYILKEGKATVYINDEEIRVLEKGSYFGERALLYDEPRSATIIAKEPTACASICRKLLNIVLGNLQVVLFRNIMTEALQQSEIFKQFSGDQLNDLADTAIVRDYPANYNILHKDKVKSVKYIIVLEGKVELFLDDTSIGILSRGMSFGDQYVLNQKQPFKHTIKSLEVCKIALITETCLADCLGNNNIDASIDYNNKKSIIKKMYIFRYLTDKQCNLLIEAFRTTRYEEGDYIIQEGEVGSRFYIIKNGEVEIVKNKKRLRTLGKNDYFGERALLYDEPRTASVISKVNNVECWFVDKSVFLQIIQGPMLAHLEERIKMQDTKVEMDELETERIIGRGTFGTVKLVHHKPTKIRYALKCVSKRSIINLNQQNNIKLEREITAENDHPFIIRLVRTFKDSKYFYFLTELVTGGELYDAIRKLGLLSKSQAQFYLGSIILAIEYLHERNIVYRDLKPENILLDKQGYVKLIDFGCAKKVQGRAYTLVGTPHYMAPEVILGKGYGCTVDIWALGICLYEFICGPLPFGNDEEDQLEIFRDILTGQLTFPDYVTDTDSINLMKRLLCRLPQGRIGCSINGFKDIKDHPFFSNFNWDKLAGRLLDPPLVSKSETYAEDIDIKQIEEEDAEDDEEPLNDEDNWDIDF

IC50 [1, 2]	Human PKG (10 μm) (human PKG (hPKG))	SMILES	IC50 [1]
< 1000 nM	12	CN1CCC(c2[nH]c(-c3ccc(F)cc3)c(-c3ccncc3)c2CO)CC1 [Example 21, (5-(4-fluorophenyl)-2-(1-methylpiperidin-4-yl)-4-(pyridin-4-yl)-1H-pyrrol-3-yl)methanol]	
< 1000 nM	−3	CN(C)Cc1c(C2CCN(C)CC2)[nH]c(-c2ccc(F)cc2)c1-c1ccncc1 [Example 22, 1-(5-(4-fluorophenyl)-2-(1-methylpiperidin-4-yl)-4-(pyridin-4-yl)-1H-pyrrol-3-yl)-N,N-dimethylmethanamine]	
< 1000 nM	0	CNCc1c(C2CCN(C)CC2)[nH]c(-c2ccc(F)cc2)c1-c1ccncc1 [Example 23]	
< 1000 nM	43	CCc1c(C2CCN(C)CC2)[nH]c(-c2ccc(F)cc2)c1-c1ccncc1 [Example 24, 4-(4-ethyl-2-(4-fluorophenyl)-5-(1-methylpiperidin-4-yl)-1H-pyrrol-3-yl)pyridine]	
< 1000 nM	17	CN1CCC(c2[nH]c(-c3ccc(F)cc3)c(-c3ccncc3)c2CS(C)(=O)=O)CC1 [Example 25, 4-(2-(4-fluorophenyl)-5-(1-methylpiperidin-4-yl)-4-((methylsulfonyl)methyl)-1H-pyrrol-3-yl)pyridine]	
< 1000 nM	7	CN1C[C@@H]2C(c3cc(-c4ccncc4)c(-c4ccc(F)cc4)[nH]3)[C@@H]2C1 (stereo partly drawn) [Example 26, (1R,5S)-6-(5-(4-fluorophenyl)-4-(pyridin-4-yl)-1H-pyrrol-2-yl)-3-methyl-3-azabicyclo[3.1.0]hexane]	
< 1000 nM	9	CN1CCC(c2cc(-c3ccncc3)c(-c3ccc(C(F)(F)F)cc3)[nH]2)CC1 [Example 33, 4-(5-(1-methylpiperidin-4-yl)-2-(4-(trifluoromethyl)phenyl)-1H-pyrrol-3-yl)pyridine]	
< 1000 nM	38	COc1ccc(-c2[nH]c(C3CCN(C)CC3)cc2-c2ccncc2)cc1 [Example 34, 4-(2-(4-methoxyphenyl)-5-(1-methylpiperidin-4-yl)-1H-pyrrol-3-yl)pyridine]	
< 1000 nM	59	CN1CCC(c2cc(-c3ccncc3)c(-c3ccc(F)cc3)[nH]2)CC1 [TSP, 4-(2-(4-fluorophenyl)-5-(1-methylpiperidin-4-yl)-1H-pyrrol-3-yl)pyridine, reference compound]	

SMILES	IC50 [1, 2]	Human PKG (10 μm) (human PKG (hPKG))	IC50 [1]
CN1C2CCC1CC(c1cc(-c3ccncc3)c(-c3ccc(F)cc3)[nH]1)C2 (stereo not shown) [Example 27, 3-(5-(4-fluorophenyl)-4-(pyridin-4-yl)-1H-pyrrol-2-yl)-8-methyl-8-azabicyclo[3.2.1]octane]		32	< 1000 nM
CN1CCC(C)(c2cc(-c3ccncc3)c(-c3ccc(F)cc3)[nH]2)CC1 [Example 28, 4-(5-(1,4-dimethylpiperidin-4-yl)-2-(4-fluorophenyl)-1H-pyrrol-3-yl)pyridine]		29	< 1000 nM

Source: patent US20220227735A1, “THERAPEUTIC METHODS AND COMPOUNDS” (RUTGERS, THE STATE UNIVERSITY OF NEW JERSEY, priority 2019, published 2022)
